Reference: patent US4829061A, “1-(4-Hydroxy-3,5-di-tert.-butylbenzoyl)homopiperazine, various derivatives thereof, processes for the preparation of these compounds, medicaments containing them, and their use” (Hoechst Aktiengesellschaft, priority 1987, dated 1989)

Experiments:
[1] = tested on: adjuvant-induced arthritis in the rat; experiment: Adjuvant arthritis (method of Pearson), paw volume; assay type: in vivo, rat (male, Wistar-Lewis strain); conditions: 50 mg/kg p.o. once a day, day 1 to 5; reduction in increase in paw volume vs control
Method: (§1) The antiinflammatory effect of the compounds of the formula I, according to the invention, was tested on adjuvant arthritis, and the effect on forms of rheumatic disorders having a severe course (chronic graft-versus-host diseases and autoimmune diseases mediated by immune complexes) was tested on the chronic graft-versus-host (cGvH) reaction in the mouse and in the reverse passive Arthus reaction in the rat in accordance with the animal models described below. The tolerability was determined by determining the toxicity in rats, namely by continuous administration for 14 days.
The investigations were carried out by the method of Pearson (Arthrit. Rheum. 2 (1959) page 44). The test animals used were male rats of a Wistar-Lewis strain with a body weight between 130 and 200 g. The compounds to be tested were administered orally (p.o.) in doses of 50 mg per kg of body weight once a day from the 1st to the 5th day of the experiment. The animals in a control group received only the vehicle. Each product and control group comprised 8 animals. The criterion used for an effect was the percentage reduction in the increase in paw volume compared with that in the untreated control group.

[2] = tested on: reverse passive Arthus reaction; experiment: Reverse passive Arthus reaction in the rat; assay type: in vivo, rat (female and male Sprague-Dawley); conditions: 1 hour before induction, paw volume 4 hours after ovalbumin challenge
Method: as §1
The experimental animals used were female and male Sprague-Dawley rats with a body weight between 80 and 100 g. The rats were divided into groups each comprising 8 animals. 1 hour before the Arthus reaction was induced by injection of 0.1 ml of an anti-rat IgG solution (0.6 mg/ml) into the right rear paw, the particular test substance or the pure vehicle (positive controls) was administered orally. Sodium chloride solution was injected into the left paw. A group of non-sensitized animals (negative controls) was likewise treated with ovalbumin in order to be able to rule out non-specific reactions to the protein. The parameter used to measure the action of the products was the percentage change in the increase in paw volume compared with that in the control group (positive controls) which, although sensitized, was untreated, 4 hours after the ovalbumin challenge, when the swelling had reached its maximum.

[3] = Determination of toxicity in the rat, 14 days (weight gain); assay type: in vivo, rat (male and female Wistar); conditions: 50 or 75 mg/kg p.o. each day for 14 days
Method: as §1
Groups of 10 male and female Wistar rats were fed each day for a period of 14 days with 50 or 75 mg/kg p.o., and were weighed every 2 days. The experiment was terminated after 14 days, and the weight gain was determined. The same number of rats not treated with the products acted as controls. […] This is regarded as a critical parameter for the tolerability of a compound.

cGvH disease = experiment: Chronic graft-versus-host (cGvH) reaction in the mouse; assay type: in vivo, mouse (female (DBA/2×C57Bl/6)F1); conditions: 6 weeks from day 21
Method: as §1
The features of graft-versus-host disease, which is based on an immune reaction originating from the transplant and directed against the host tissue, are, in the form having an acute course which almost always ends fatally, enlargement of the spleen, hepatomegaly, lymph node hypertrophy, hemolytic anemia, low immunoglobulin and complement levels, and diminished immunoreactivity. The chronic form of the disease, which has a somewhat milder course, results in lymphadenopathy, immune complex glomerulonephritis and excessive formation of non-organ-specific autoantibodies. The clinical picture of systemic lupus erythematosus (SLE), which is likewise one of the autoimmune diseases, has similar features.
Investigation of the compounds used according to the invention on the course of the cGvH disease induced in response to two injections of spleen and thymus cells, mixed together, in female mice of the (DBA/2×C57Bl/6)F1 generation was carried out by the design of experiment described by S. Popovic and R. R. Bartlett (Agents and Actions 21 (1987), 284-286), with intravenous administration, at a time interval of 7 days, of, in each case, 5×10^7 DBA/2 cells, likewise obtained from female donor animals, in 0.2 ml of culture medium. For reliable assessment of the course and appearance of the disease, a group of healthy animals was included as negative controls in all the experiments. The 6-week oral treatment of the animals with the disease took place from day 21 after the first donor cell injection, with administration once a day of the test substance or the pure vehicle (positive controls). […]
The action of the product was assessed on the basis of the inhibition of proteinuria and the cGvH index. The animals with the disease develop, as a consequence of the damage to nephrons due to deposition of immune complexes on the basement membranes of the glomeruli, a pronounced proteinuria which correlates with the extent of the glomerulonephritis and can easily be quantified by the increase in the amount of protein excreted with the urine. The second measured parameter, the cGvH index, is based on the great enlargement of the spleen (splenomegaly) caused by the cGvH reaction. […]

Row | Structure (SMILES) | % inhibition in paw volume day 5 [1] | Reverse passive Arthus reaction, % inhibition ([2]; 20 mg/kg p.o.) | Reverse passive Arthus reaction, % inhibition ([2]; 25 mg/kg p.o.) | change in the weights (weight gain) [3] | % inhibition Proteinuria (cGvH disease; 5 mg/kg/day p.o.) | % inhibition cGvH index (cGvH disease; 5 mg/kg/day p.o.) | % inhibition Proteinuria (cGvH disease; 20 mg/kg/day p.o.) | % inhibition cGvH index (cGvH disease; 20 mg/kg/day p.o.) | Reverse passive Arthus reaction, % inhibition ([2]; 100 mg/kg p.o.)
1 | CC(C)(C)c1cc(C(=O)N2CCCNCC2)cc(C(C)(C)C)c1O [Example 2, 1-(4-Hydroxy-3,5-di-tert.-butylbenzoyl)homopiperazine] | 34% | 28% | 37% | no significant change in the weights |  |  |  |  | 
2 | CC(C)(C)c1cc(C(=O)N2CCCN(C(=O)OCc3ccccc3)CC2)cc(C(C)(C)C)c1O [Example 1, 1-(4-Hydroxy-3,5-di-tert.-butylbenzoyl)-4-benzyloxycarbonylhomopiperazine] | 25% |  |  | no significant change in the weights | 100% | 57% | 80% | 75% | 25%
